Molecular target: T1, human GVIA iPLA2 (Homo sapiens, UniProt O60733)
T1 sequence (O60733 1-806): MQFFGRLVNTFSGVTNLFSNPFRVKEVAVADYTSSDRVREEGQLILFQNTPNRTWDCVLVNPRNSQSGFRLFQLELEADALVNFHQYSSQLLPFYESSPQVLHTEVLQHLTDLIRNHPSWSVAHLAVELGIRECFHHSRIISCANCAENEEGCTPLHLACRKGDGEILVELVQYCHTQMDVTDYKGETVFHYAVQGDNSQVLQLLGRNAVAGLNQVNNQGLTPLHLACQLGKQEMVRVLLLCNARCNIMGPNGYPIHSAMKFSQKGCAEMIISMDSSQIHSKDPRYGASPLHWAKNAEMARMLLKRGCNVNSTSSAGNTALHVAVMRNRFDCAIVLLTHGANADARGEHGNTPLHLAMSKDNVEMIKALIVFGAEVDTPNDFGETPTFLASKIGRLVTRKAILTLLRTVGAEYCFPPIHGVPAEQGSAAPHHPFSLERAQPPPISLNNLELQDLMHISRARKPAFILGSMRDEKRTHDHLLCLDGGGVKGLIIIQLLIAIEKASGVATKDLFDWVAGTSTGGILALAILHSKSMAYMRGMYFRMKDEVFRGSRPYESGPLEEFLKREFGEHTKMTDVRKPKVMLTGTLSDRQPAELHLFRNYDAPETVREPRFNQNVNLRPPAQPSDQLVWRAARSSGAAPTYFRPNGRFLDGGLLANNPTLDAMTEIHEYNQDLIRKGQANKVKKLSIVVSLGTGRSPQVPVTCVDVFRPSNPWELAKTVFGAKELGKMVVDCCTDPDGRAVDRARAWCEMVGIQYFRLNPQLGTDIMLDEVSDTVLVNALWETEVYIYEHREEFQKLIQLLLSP
Assay: mixed micelle-based modified Dole assay, GVIA iPLA2 inhibition
Type: biochemical
Conditions: for fold weaker towards iPLA2 than FKGK11: compared with FKGK11

| SMILES | times weaker inhibitor towards GVIA iPLA2 than FKGK18 (compared with FKGK18) [times] | fold weaker towards iPLA2 than FKGK11 |
| --- | --- | --- |
| O=C(CCCCc1cccc2ccccc12)C(F)(F)F [5a, 1,1,1-Trifluoro-6-(naphthalen-1-yl)hexan-2-one] | 9 |  |
| O=C(CCCCc1ccc(-c2ccccc2)cc1)C(F)(F)F [5e, 6-(Biphenyl-4-yl)-1,1,1-trifluorohexan-2-one] |  | 13 fold |
| O=C(CCCCc1ccc(-c2ccccc2)cc1)C(F)(F)C(F)(F)F [6e, 7-(Biphenyl-4-yl)-1,1,1,2,2-pentafluoroheptan-3-one] |  | ninefold weaker |
